Consider three molecules from ChEMBL document CHEMBL1649479, “In vitro activity of doripenem against Burkholderia pseudomallei” (2009).

Broadly, the MIC is the lowest concentration that inhibits growth of the organism. What is called MIC50 is the lowest concentration that inhibits either 50% of growth or 50% of the strains tested, depending on the study. A lower MIC50 goes with higher susceptibility. Usually MIC90 stands for an inhibitory concentration at the 90% level, which refers to growth in some studies and to a panel of isolates in others.

Converted amounts (≈) assume the structure as drawn. Bounds are passed on as bounds.

Format in all cases: functional
In one assay the test system is Escherichia coli. In words: Antimicrobial activity against Escherichia coli ATCC 25922 by agar dilution method. For orientation: In agar dilution, organisms are placed on agar that contains the substance at set levels.
The test system of a further assay is Pseudomonas aeruginosa. Nature of the assay: Antimicrobial activity against Pseudomonas aeruginosa ATCC 27853 by agar dilution method.
For assay [1], the system named is Burkholderia pseudomallei. Nature of the assay: Selectivity ratio of MIC for Burkholderia pseudomallei by agar dilution method to MIC for Burkholderia pseudomallei by Etest method.
The subject of assay [2] is Burkholderia pseudomallei. Nature of the assay: Antimicrobial activity against Burkholderia pseudomallei by Etest method.
Assay [3] concerns Burkholderia pseudomallei. Nature of the assay: Antimicrobial activity against Burkholderia pseudomallei by agar dilution method.
Where [4] appears, read: Burkholderia pseudomallei, read-out: MIC90.

For `C[C@@H](O)[C@H]1C(=O)N2C(C(=O)O)=C(S[C@@H]3CN[C@H](CNS(N)(=O)=O)C3)[C@H](C)[C@H]12` [DORIPENEM], the figures for the MIC (with Escherichia coli; in the assay with Pseudomonas aeruginosa; in assay [2]) were 0.012 µg/mL (≈ 0.0285 µM), 0.125 µg/mL (≈ 0.297 µM) and 0.19 µg/mL (≈ 0.452 µM), respectively. In addition, the Ratio in assay [1] is given as 2. Also, the figures for the MIC50 in assay [2] and in assay [3] (Burkholderia pseudomallei) were 0.5 µg/mL (≈ 1.19 µM) and 1 µg/mL (≈ 2.38 µM), respectively. For the same molecule, the MIC90 in assay [2] was 0.75 µg/mL (≈ 1.78 µM); in assay [3] it was “<=2 ug ml-1”; in assay [3] (setting [4]), 1.5 µg/mL (≈ 3.57 µM). The “inhibition zone (IZ)” value in assay [3] is 24 mm.
Take `C[C@@H](O)[C@H]1C(=O)N2C(C(=O)O)=C(SCCNC=N)C[C@H]12` [IMIPENEM ANHYDROUS]: the MIC50 was determined as 0.5 µg/mL (≈ 1.67 µM) in assay [2] and 1 µg/mL (≈ 3.34 µM) in assay [3] (Burkholderia pseudomallei). Also, the MIC90 in assay [2] and in assay [3] (setting [4]) was 1 µg/mL (≈ 3.34 µM) each time.
`C[C@@H](O)[C@H]1C(=O)N2C(C(=O)O)=C(S[C@@H]3CN[C@H](C(=O)N(C)C)C3)[C@H](C)[C@H]12` [MEROPENEM]: the values for the MIC50 in assay [2] and in assay [3] (Burkholderia pseudomallei) were 1 µg/mL (≈ 2.61 µM) and 3 µg/mL (≈ 7.82 µM), respectively. The MIC90 was 2 µg/mL (≈ 5.22 µM) in assay [2] and 4 µg/mL (≈ 10.4 µM) in assay [3] (setting [4]).
